Measured values from US9409905B2, “Antibacterial compounds and methods for use” (PTC THERAPEUTICS, INC., priority 2011, dated 2016).
Values after ≈ are worked out from the molar mass of the structure shown. Where two headings read alike, the source gives them in different places.

Assays:
[1] = system: Escherichia coli (E. coli) BAS849; assay: Antibacterial activity, microbroth dilution MIC (Table 1); format: cell-based
Outline: (§1)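 Each strain is exposed to test compound in a microbroth dilution series; visible growth is scored macroscopically, and the lowest growth-free concentration is recorded as MIC in μg/mL.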

[2] = system: Staphylococcus aureus (S. aureus) 29213; assay: as above; format: cell-based
Outline: as §1

[3] = system: E. coli 25922; assay: as above; format: cell-based, Escherichia coli
Outline: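 MIC (μg/mL) read as lowest concentration with no macroscopically visible growth; microbroth dilution format. E. coli 25922 served as control Gram-negative strain.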

[4] = system: E. coli LZ3111; assay: Antibacterial activity, MIC, quinolone resistant strain (Table 2); format: cell-based; conditions: Escherichia coli, LZ3111, read-out: MIC LZ3111
Outline: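 Microbroth dilution method; MIC (μg/mL) is the lowest drug concentration preventing macroscopically visible growth under test conditions.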

[5] = system: Acinetobacter baumannii (A. baumannii) BAA747; assay: Antibacterial activity, MIC (Table 4); format: cell-based
Description: (§2) The antibacterial activity from a microbroth dilution method may be presented as the minimum inhibitory concentration (MIC in μg/mL). The MIC value is the lowest concentration of drug which prevents macroscopically visible growth under test conditions.
(§3) Antibacterial activity of test compounds against the Gram-negative Acinetobacter baumannii (A. baumannii) BAA747 and Klebsiella pneumoniae (K. pneumoniae) 35657 bacterium and the resistant A. baumannii MXX2240 and K. pneumoniae MXX1232 strains are shown in Table 4. The MMX strains are multi-drug resistant clinical isolates.

[6] = system: Klebsiella pneumoniae (K. pneumoniae) 35657; assay: Antibacterial activity, MIC (Table 4); format: cell-based
Description: as §2, §3

[7] = system: A. baumannii MXX2240; assay: Antibacterial activity, MIC, resistant strain (Table 4); format: cell-based; conditions: Acinetobacter baumannii
Description: as §2, §3

[8] = system: K. pneumoniae MXX1232; assay: as above; format: cell-based; conditions: Klebsiella pneumoniae
Description: as §2, §3

[9] = system: Pseudomonas aeruginosa (P. aeruginosa) 27853; assay: Antibacterial activity, MIC (Table 5); format: cell-based
Description: as §2
Antibacterial activity of test compounds against the Gram-negative bacterium Pseudomonas aeruginosa (P. aeruginosa) 27853 is shown in Table 5.

[10] = microbroth dilution, super sensitive Gram-negative E. coli BAS849, read-out: MIC, BAS849
[11] = microbroth dilution, Gram-positive S. aureus 29213, read-out: MIC, 29213
[12] = Escherichia coli, microbroth dilution, control Gram-negative E. coli 25922 strain, read-out: MIC, 25922
[13] = A. baumannii BAA747, read-out: MIC, BAA747
[14] = K. pneumoniae 35657, read-out: MIC, 35657
[15] = MXX2240, resistant A. baumannii MMX2240, multi-drug resistant clinical isolate, read-out: MIC, MMX2240
[16] = MXX1232, resistant K. pneumoniae MMX1232, multi-drug resistant clinical isolate, read-out: MIC, MMX1232
[17] = P. aeruginosa 27853, read-out: MIC, 27853

| SMILES | MIC [1, 10] | MIC [2, 11] | MIC [3, 12] | MIC [4] | MIC [5, 13] | MIC [6, 14] | MIC [7, 15] | MIC [8, 16] | MIC [9, 17] | MIC ([1]; read-out: MIC, BAS849) | MIC ([2]; read-out: MIC, 29213) | MIC ([3]; Escherichia coli, 25922, read-out: MIC, 25922) | MIC ([5]; BAA747, read-out: MIC, BAA747) | MIC ([6]; read-out: MIC, 35657) | MIC ([7]; MXX2240, read-out: MIC, MMX2240) | MIC ([8]; MXX1232, read-out: MIC, MMX1232) | MIC ([9]; read-out: MIC, 27853) |
| --- | --- | --- | --- | --- | --- | --- | --- | --- | --- | --- | --- | --- | --- | --- | --- | --- | --- |
| Cn1ccc2cc(-c3[nH]c(=O)c(C(=O)O)c(O)c3Cl)ccc21 [Cpd 376, 5-chloro-4-hydroxy-6-(1-methyl-1H-indol-5-yl)-2-oxo-1,2-dihydropyridine-3-carboxylic acid] | 3.5 to 12.5 µg/mL (≈ 11 to 39.2 µM) | 12.5 to 150 µg/mL (≈ 39.2 to 471 µM) | 12.5 to 150 µg/mL (≈ 39.2 to 471 µM) | 12.5 to 150 µg/mL (≈ 39.2 to 471 µM) | 12.5 to 150 µg/mL (≈ 39.2 to 471 µM) | 12.5 to 150 µg/mL (≈ 39.2 to 471 µM) | 12.5 to 150 µg/mL (≈ 39.2 to 471 µM) | 12.5 to 150 µg/mL (≈ 39.2 to 471 µM) | 12.5 to 150 µg/mL (≈ 39.2 to 471 µM) |  |  |  |  |  |  |  |  |
| Cc1c(-c2ccc3c(c2)cc(CNC(C)(C)C)n3C)[nH]c(=O)c(C(=O)O)c1O [Cpd 351, 6-(2-((tert-butylamino)methyl)-1-methyl-1H-indol-5-yl)-4-hydroxy-5-methyl-2-oxo-1,2-dihydropyridine-3-carboxylic acid] | < 1 µg/mL | 12.5 to 150 µg/mL (≈ 32.6 to 391 µM) | 1 to 3.5 µg/mL (≈ 2.61 to 9.13 µM) | 3.5 to 12.5 µg/mL (≈ 9.13 to 32.6 µM) | < 1 µg/mL | 1 to 3.5 µg/mL (≈ 2.61 to 9.13 µM) | 1 to 3.5 µg/mL (≈ 2.61 to 9.13 µM) | 12.5 to 150 µg/mL (≈ 32.6 to 391 µM) | 12.5 to 150 µg/mL (≈ 32.6 to 391 µM) |  |  |  |  |  |  |  |  |
| CCc1c(-c2ccc3c4c([nH]c3c2)CN(C(C)C)CC4)[nH]c(=O)c(C(=O)O)c1O [Cpd 449, 5-ethyl-4-hydroxy-6-(2-isopropyl-2,3,4,9-tetrahydro-1H-pyrido[3,4-b]indol-7-yl)-2-oxo-1,2-dihydropyridine-3-carboxylic acid] | < 1 µg/mL | 12.5 to 150 µg/mL (≈ 31.6 to 379 µM) | < 1 µg/mL | 3.5 to 12.5 µg/mL (≈ 8.85 to 31.6 µM) | 3.5 to 12.5 µg/mL (≈ 8.85 to 31.6 µM) | < 1 µg/mL | 3.5 to 12.5 µg/mL (≈ 8.85 to 31.6 µM) | 12.5 to 150 µg/mL (≈ 31.6 to 379 µM) | 12.5 to 150 µg/mL (≈ 31.6 to 379 µM) |  |  |  |  |  |  |  |  |
| CCCN1CCc2c([nH]c3cc(-c4[nH]c(=O)c(C(=O)O)c(O)c4CC)ccc23)C1 [Cpd 448, 5-ethyl-4-hydroxy-2-oxo-6-(2-propyl-2,3,4,9-tetrahydro-1H-pyrido[3,4-b]indol-7-yl)-1,2-dihydropyridine-3-carboxylic acid] |  |  |  | 3.5 to 12.5 µg/mL (≈ 8.85 to 31.6 µM) |  |  |  |  |  | < 1 µg/mL | 12.5 to 150 µg/mL (≈ 31.6 to 379 µM) | < 1 µg/mL | 3.5 to 12.5 µg/mL (≈ 8.85 to 31.6 µM) | 1 to 3.5 µg/mL (≈ 2.53 to 8.85 µM) | 3.5 to 12.5 µg/mL (≈ 8.85 to 31.6 µM) | 12.5 to 150 µg/mL (≈ 31.6 to 379 µM) | 12.5 to 150 µg/mL (≈ 31.6 to 379 µM) |
| CCc1c(-c2cnc3cc[nH]c3c2)[nH]c(=O)c(C(=O)O)c1O [Cpd 430, 5-ethyl-4-hydroxy-2-oxo-6-(1H-pyrrolo[3,2-b]pyridin-6-yl)-1,2-dihydropyridine-3-carboxylic acid] | 12.5 to 150 µg/mL (≈ 41.8 to 501 µM) | 12.5 to 150 µg/mL (≈ 41.8 to 501 µM) | 12.5 to 150 µg/mL (≈ 41.8 to 501 µM) | 12.5 to 150 µg/mL (≈ 41.8 to 501 µM) | 12.5 to 150 µg/mL (≈ 41.8 to 501 µM) | 12.5 to 150 µg/mL (≈ 41.8 to 501 µM) | 12.5 to 150 µg/mL (≈ 41.8 to 501 µM) | 12.5 to 150 µg/mL (≈ 41.8 to 501 µM) | 12.5 to 150 µg/mL (≈ 41.8 to 501 µM) |  |  |  |  |  |  |  |  |
| CCc1c(-c2ccc3c(c2)[nH]c2ccccc23)[nH]c(=O)c(C(=O)O)c1O [Cpd 432, 6-(9H-carbazol-2-yl)-5-ethyl-4-hydroxy-2-oxo-1,2-dihydropyridine-3-carboxylic acid] | < 1 µg/mL | < 1 µg/mL | 3.5 to 12.5 µg/mL (≈ 10 to 35.9 µM) | 12.5 to 150 µg/mL (≈ 35.9 to 431 µM) | 1 to 3.5 µg/mL (≈ 2.87 to 10 µM) | 3.5 to 12.5 µg/mL (≈ 10 to 35.9 µM) | 12.5 to 150 µg/mL (≈ 35.9 to 431 µM) | 12.5 to 150 µg/mL (≈ 35.9 to 431 µM) | 12.5 to 150 µg/mL (≈ 35.9 to 431 µM) |  |  |  |  |  |  |  |  |
| CCc1cc(C(=O)O)c(=O)[nH]c1-c1ccc2c(c1)cc1n2CCC1N1CCCCC1 (stereo not drawn) [Cpd 154, 5-ethyl-2-oxo-6-(1-(piperidin-1-yl)-2,3-dihydro-1H-pyrrolo[1,2-a]indol-7-yl)-1,2-dihydropyridine-3-carboxylic acid] | < 1 µg/mL | 12.5 to 150 µg/mL (≈ 30.8 to 370 µM) | 1 to 3.5 µg/mL (≈ 2.47 to 8.63 µM) | 12.5 to 150 µg/mL (≈ 30.8 to 370 µM) | 3.5 to 12.5 µg/mL (≈ 8.63 to 30.8 µM) | 1 to 3.5 µg/mL (≈ 2.47 to 8.63 µM) | 12.5 to 150 µg/mL (≈ 30.8 to 370 µM) | 12.5 to 150 µg/mL (≈ 30.8 to 370 µM) | 12.5 to 150 µg/mL (≈ 30.8 to 370 µM) |  |  |  |  |  |  |  |  |
| Cc1c(-c2ccc3c(c2)CC(=O)N3)[nH]c(=O)c(C(=O)O)c1O [Cpd 427, 4-hydroxy-5-methyl-2-oxo-6-(2-oxoindolin-5-yl)-1,2-dihydropyridine-3-carboxylic acid] | 12.5 to 150 µg/mL (≈ 41.6 to 500 µM) | 12.5 to 150 µg/mL (≈ 41.6 to 500 µM) | 12.5 to 150 µg/mL (≈ 41.6 to 500 µM) | 12.5 to 150 µg/mL (≈ 41.6 to 500 µM) | 12.5 to 150 µg/mL (≈ 41.6 to 500 µM) | 12.5 to 150 µg/mL (≈ 41.6 to 500 µM) | 12.5 to 150 µg/mL (≈ 41.6 to 500 µM) | 12.5 to 150 µg/mL (≈ 41.6 to 500 µM) | 12.5 to 150 µg/mL (≈ 41.6 to 500 µM) |  |  |  |  |  |  |  |  |
